Measured values taken from US20170198359A1, “METHODS AND COMPOSITIONS FOR TREATMENT OR DIAGNOSIS OF CANCERS RELATED TO GABRA3” (The Wistar Institute of Anatomy and Biology, priority 2016, published 2017).
“Also recorded” adds a separate entry of the source.

Key:
[1] = tested on: MCF7 cells stably expressing GABRA3; assay: Transwell migration assay, MCF7-GABRA3 cells with AKT inhibitor; assay type: cell-based, human; conditions: different concentrations of the inhibitor vs control DMSO, FIG. 11A
Protocol: (§1) In vitro cell migration assays were performed as described previously (21, 22) using Trans-well chambers ([…] pore size; Costar). Cells were allowed to grow to subconfluency (˜75-80%) and were serum-starved for 24 h. After detachment with trypsin, cells were washed with PBS, resuspended in serum-free medium and 250 μl cell suspensions (2×10^5 cells ml−1) was added to the upper chamber. Complete medium was added to the bottom wells of the chambers. The cells that had not migrated were removed from the upper face of the filters using cotton swabs, and the cells that had migrated to the lower face of the filters were fixed with 5% glutaraldehyde solution and stained with 0.5% solution of Toluidine Blue in 2% sodium carbonate. Images of three random ×10 fields were captured from each membrane and the number of migratory cells was counted. […]
(§2) It has previously been shown that A-to-I edited GABRA3 affected the intracellular trafficking of GABRA3 (18), which is critical for the localization of GABRA3 on cell membrane. We determined the expression of GABRA3 on cell surface of breast cancer cells using FACS analysis. […] Since AKT pathway is critical in both breast cancer metastasis and therapy resistance (27-29), we determined the effect of GABRA3 on AKT activation and whether AKT pathway mediates GABRA3 functions in migration and invasion. […]

[2] = tested on: MCF7 cells stably expressing GABRA3; assay: Matrigel invasion assay, MCF7-GABRA3 cells with AKT inhibitor; assay type: cell-based, human; conditions: different concentrations of the inhibitor vs control DMSO, FIG. 11B
Protocol: as §1, §2

[3] = tested on: melanoma; conditions: melanoma treatment, clinical trials; cited from earlier work
[4] = tested on: MDA-MB-436 cells; assay: Boyden chamber migration assay, MDA-MB-436 cells with GABRA3 inhibitors; assay type: cell-based, human; conditions: various concentrations (10 nM-10 μM), FIG. 12
Protocol: (§3) MDA-MB-436 cells were treated with GABRA3 inhibitors picrotoxin or flumazenil at various concentrations (10 nM-10 μM). Cells were then subjected to Boyden chamber assays (see, e.g., Ostrander et al, Cancer Res May 1, 2007 67; 4199, which is incorporated herein by reference).

[5] = tested on: MDA-MB-436 cells; assay: Boyden chamber invasion assay, MDA-MB-436 cells with GABRA3 inhibitors; assay type: cell-based, human; conditions: various concentrations (10 nM-10 μM), FIG. 12
Protocol: as §3

Compound	cell migration [1]	cell invasion [2]	anti-tumor activity [3]	cell migration [4]	cell invasion [5]
NC1(c2ccc(-c3nc4ccn5c(=O)[nH]nc5c4cc3-c3ccccc3)cc2)CCC1 [MK-2206]	inhibited cell migration and invasion in a dose-dependent manner; also recorded: suppressed	inhibited cell migration and invasion in a dose-dependent manner; also recorded: suppressed	–	–	–
Nc1nc2ccc(OC(F)(F)F)cc2s1 [Riluzole]	–	–	significant anti-tumor activity	–	–
CCOC(=O)c1ncn2c1CN(C)C(=O)c1cc(F)ccc1-2 [flumazenil]	–	–	–	suppress	suppress
picrotoxin	–	–	–	suppress	suppress
